The values that follow come from a melting point compilation (Tetko et al.; mined from patent text by program, amines drawn as free bases though some values may be those of a salt).

The structures appear in SMILES notation.

As a reminder, the melting point is the temperature of the solid-liquid transition. In turn, `COc1ccc(NC(=O)c2ccccc2OC)cc1` had a melting point of 49.5 to 51.2 °C.

For the compound `O=S(=O)(c1ccc(Br)cc1)N1C=CC=NC=C1`, the melting point lay in the range of 95 to 97 °C.

In turn, `COc1ccc(C=O)c2cccnc12` registered a melting point of 121 to 122 °C.

As for `CCOC(=O)N(c1ccccc1-n1nc(C(=O)O)nc1CCl)c1cccc(C)c1C`, the melting point is 188 to 190 °C.

As to `CCc1cccc(C)c1C(=O)N[C@@H](Cc1ccc(-c2c(C(F)(F)F)cc(C)n(C)c2=O)cc1)C(=O)O`, the melting point was in the range of 219 to 221 °C.

For `N#CC1(N2CCC(n3c(=O)[nH]c4ccccc43)CC2)CCCCC1`, the melting point fell in the range of 199 to 201 °C.

Compound `CCCCC(CCCC)C(=O)O[C@H]1C[C@H](O)C=C2C=C[C@H](C)[C@H](CC[C@@H]3C[C@@H](O)CC(=O)O3)[C@H]21` had a melting point of 143 to 145 °C.

For the compound `CN(Cc1ccccc1)CC1CCSc2[nH]c3ccccc3c21` (configuration not stated), the melting point was 91 to 93 °C.

`CCOC(=O)c1[nH]c(C)c(C)c1OCC1CO1` (configuration not stated) yielded a melting point of 70 to 71 °C.

Take `CC(C)(C)OC(=O)N[C@@H](Cc1ccc(-c2ccccc2)cc1)C(=O)NCCC#N`: the melting point was in the range of 163 to 164 °C.

`Cc1ccc(C(=S)CCCCCC#N)cc1` yielded a melting point of 49.5 to 51 °C.

In the case of `Cn1ccc2cc(NC(=O)c3cc4cccnc4n3Cc3cccc(F)c3)ccc21`, the melting point is 191 to 192 °C.

In the case of `COC(=O)c1c(C(=O)O)n(-c2ccc(OC(C)C)cc2)c2ccc(Oc3ccc(C(F)(F)F)cc3)cc12`, the melting point came to 191 °C.

Consider `Cc1nnc(-c2ccnc(N)c2)o1`, for which the melting point lay in the range of 216 to 217 °C.

`CNc1nc(C)c(C(C)=O)s1` returned a melting point of 164 to 165 °C.

In turn, `CCCC1=C(C#N)C(c2ccccc2Cl)c2c(n[nH]c2C)N1` (configuration not stated) gave a melting point of 260 °C.

For `Cc1cc(C)c(-n2ccc3c(OCc4ccc(C(F)(F)F)cc4)nn(C)c(=O)c32)c(C)c1`, the melting point was in the range of 178 to 180 °C.

`Cn1c(=O)n(SC(Cl)(Cl)Cl)n(-c2ccccc2)c1=O` registered a melting point of 214 °C.

`CC(=O)NCc1ccc(C#Cc2ccc3c(c2)C(C)(C)CCC3(C)C)cc1` displayed a melting point of 220 to 223 °C.

In turn, `Cc1cccc(C2(C#N)C3CC4CC(C3)CC2C4)c1` (configuration not stated) returned a melting point of 85 to 86 °C.

Turning to `Cn1cc(C(=O)NCc2ccc(Cl)cc2)c(=O)c2cc(CO)sc21`, the melting point was 222 to 225 °C.

`CCCCc1nc2ccccc2c(=O)[nH]1` had a melting point of 153 to 155 °C.

The compound `Cn1c(C(F)(F)F)cc(=O)n(-c2cc([N+](=O)[O-])c(Br)cc2F)c1=O` displayed a melting point of 124 to 125 °C.

Compound `O=C(N[C@H](Cc1ccccc1)[C@H](O)C(=O)O)c1ccccc1` had a melting point of 172 to 173 °C.

Consider `CC(C)C1CCN(Cc2ccc(COc3cccc4c3C(=O)N(C3CCC(=O)NC3=O)C4=O)cc2)CC1` (configuration not stated), for which the melting point lay in the range of 220 to 222 °C.

`COc1ccc(NCC(=O)N2CCC(Cc3ccc(F)cc3)CC2)cc1` displayed a melting point of 141 to 143 °C.

For the compound `Nc1cc(C(=O)O)cc(S)c1Oc1ccccc1`, the melting point lay in the range of 199 to 200 °C.

Turning to `Cc1oc(-c2ccccc2)nc1COc1ccc(CON=C(CCCCCC(=O)O)c2ccccc2)cc1`, the melting point lay within 84 to 85 °C.

In turn, `CS(=O)(=O)NC(=O)CCCCOc1cccc(O)c1C=O` showed a melting point of 136 to 138 °C.

Regarding `CSC1=NS(=O)(=O)c2cscc21`, the melting point lay within 184 to 186 °C.

For `CCOC(=O)c1cnc2onc(C)c2c1N(C)S(=O)(=O)c1ccc(Oc2ccncc2)cc1`, the melting point was 155 to 157 °C.

On to `COc1cc(OC)c(/C=C/S(=O)(=O)Cc2ccc(OC)c(N)c2)c(OC)c1`, for which the melting point was 148 to 150 °C.

For the compound `Cc1ccc(OC2SCC(O)C(O)C2O)c(-c2ccoc2)n1` (configuration not stated), the melting point is 162 °C.

On to `N#CCc1ccc(NC(=O)OCc2cccnc2)cc1`, for which the melting point is 157 to 162 °C.

`C#CCn1ncc(=O)[nH]c1=O` gave a melting point of 148 °C.

Consider `COc1ccc2c(c1)CC(C(N)=O)N2` (configuration not stated), for which the melting point fell in the range of 228 to 229 °C.

In turn, `O=C(Cl)c1ccc(-c2ccc(C(=O)Cl)cn2)nc1` had a melting point of 216 to 217 °C.
